Tests used:
[1] = biological target: T1, CRAF (Homo sapiens, UniProt P04049); test: CRAF kinase activity assay (ADP-Glo); format: biochemical; conditions: Table 3; 10 μM ATP, kinase-dead MEK1 substrate
T1 construct: fused on or other part: GST tag (N-terminal according to the vendor's product)
Summary of the method: (§1)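 ADP-Glo luminescence read after 2 h reactions at 30° C containing 0.375 nM GST-kinase, kinase-dead MEK1 (75 nM), ATP at 10 μM, pH 7.5 HEPES/MgCl2/DTT, 0.05% DMSO. Compounds dosed from 100 to 0.01 nM (nine points); IC50 from variable-slope fit of % inhibition.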

[2] = biological target: T2, BRAF (Homo sapiens, UniProt P15056); test: BRAF kinase activity assay (ADP-Glo); format: biochemical; conditions: Table 3; 10 μM ATP, kinase-dead MEK1 substrate
T2 construct: GST; purchased Millipore Sigma B4062-10UG
T2 sequence (P15056 whole entry): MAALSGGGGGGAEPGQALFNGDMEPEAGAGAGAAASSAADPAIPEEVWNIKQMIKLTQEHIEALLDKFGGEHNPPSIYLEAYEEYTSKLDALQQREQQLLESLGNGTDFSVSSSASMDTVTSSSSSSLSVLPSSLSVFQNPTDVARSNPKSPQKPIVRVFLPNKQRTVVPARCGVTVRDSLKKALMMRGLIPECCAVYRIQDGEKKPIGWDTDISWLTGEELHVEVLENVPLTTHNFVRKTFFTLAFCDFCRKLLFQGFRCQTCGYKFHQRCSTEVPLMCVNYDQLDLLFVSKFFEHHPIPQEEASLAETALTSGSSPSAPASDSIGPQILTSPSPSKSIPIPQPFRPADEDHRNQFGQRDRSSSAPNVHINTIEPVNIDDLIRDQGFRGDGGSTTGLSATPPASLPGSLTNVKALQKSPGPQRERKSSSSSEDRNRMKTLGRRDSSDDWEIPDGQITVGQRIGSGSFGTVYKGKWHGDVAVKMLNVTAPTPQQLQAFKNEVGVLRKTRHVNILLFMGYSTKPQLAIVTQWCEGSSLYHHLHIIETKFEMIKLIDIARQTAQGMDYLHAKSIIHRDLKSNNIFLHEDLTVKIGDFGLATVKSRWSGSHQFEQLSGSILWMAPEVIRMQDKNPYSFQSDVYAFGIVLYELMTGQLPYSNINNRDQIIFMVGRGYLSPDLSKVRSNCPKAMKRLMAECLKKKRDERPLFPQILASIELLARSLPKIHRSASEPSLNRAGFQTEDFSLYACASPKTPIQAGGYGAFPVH
Summary of the method: as §1

[3] = system: pERK, HCT116 cells; test: Phospho-ERK inhibition, AlphaLISA p-ERK 1/2, HCT-116; format: cell-based, human; conditions: Table 3; for IC50: HCT116 cells (KRAS G13D), 1 h treatment; for HCT116 pERK (Ymin %): lowest % inhibition value of the pERK IC50 curve, above −20% = no paradoxical induction
Summary of the method: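 Cells in RPMI-1640 with 5% FBS plated overnight, then treated 1 h with ten-point dilutions (10 μM to 0.33 nM, 0.5% DMSO). Lysate p-ERK1/2 (Thr202/Tyr204) read by AlphaLISA SureFire Ultra; % inhibition normalised to DMSO and 1 μM trametinib background, IC50 by four-parameter fit.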

T1 sequence (P04049 whole entry Y340E/Y341E, form open, the tested form may be a part): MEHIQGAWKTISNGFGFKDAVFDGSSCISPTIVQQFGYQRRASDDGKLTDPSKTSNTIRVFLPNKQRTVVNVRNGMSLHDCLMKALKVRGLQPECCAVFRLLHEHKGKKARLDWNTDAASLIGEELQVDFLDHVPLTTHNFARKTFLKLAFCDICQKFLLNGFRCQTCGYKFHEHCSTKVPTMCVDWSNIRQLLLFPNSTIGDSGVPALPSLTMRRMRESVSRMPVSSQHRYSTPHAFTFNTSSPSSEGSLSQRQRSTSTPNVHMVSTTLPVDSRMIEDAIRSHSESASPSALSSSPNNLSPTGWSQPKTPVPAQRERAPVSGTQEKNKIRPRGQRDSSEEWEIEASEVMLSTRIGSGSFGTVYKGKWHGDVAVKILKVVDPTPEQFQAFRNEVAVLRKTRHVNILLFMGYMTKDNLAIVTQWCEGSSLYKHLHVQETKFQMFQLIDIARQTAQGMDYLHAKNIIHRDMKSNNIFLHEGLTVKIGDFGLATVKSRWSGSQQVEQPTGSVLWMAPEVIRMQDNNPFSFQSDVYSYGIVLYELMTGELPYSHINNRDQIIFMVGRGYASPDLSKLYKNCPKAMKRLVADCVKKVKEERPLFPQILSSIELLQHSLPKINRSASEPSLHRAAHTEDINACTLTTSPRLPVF

O=S(=O)(Nc1ccc(F)c(Nc2ncnc3sc(-n4cc(S(=O)(=O)C5CCCC5)c5ccccc54)nc23)c1F)c1cccc(Cl)c1Cl [Example 64]
IC50 [1]: > 0.05 µM
IC50 [2]: 0.001 to 0.01 µM
IC50 [3]: < 0.5 µM
HCT116 pERK (Ymin %) [3]: −4%

O=S(=O)(CC1CCOCC1)c1cn(-c2nc3c(Nc4c(F)ccc(NS(=O)(=O)c5cccc(Cl)c5Cl)c4F)ncnc3s2)c2ccccc12 [Example 65]
IC50 [1]: 0.01 to 0.05 µM
IC50 [2]: 0.001 to 0.01 µM
IC50 [3]: 0.5 to 1 µM
HCT116 pERK (Ymin %) [3]: −3%

CN(C1CCOC1)S(=O)(=O)c1cn(-c2nc3c(Nc4c(F)ccc(NS(=O)(=O)c5cccc(Cl)c5Cl)c4F)ncnc3s2)c2ccccc12 (stereo not drawn) [Example 66]
IC50 [1]: 0.01 to 0.05 µM
IC50 [2]: 0.001 to 0.01 µM
IC50 [3]: < 0.5 µM
HCT116 pERK (Ymin %) [3]: −13%

O=S(=O)(Nc1ccc(F)c(Nc2ncnc3sc(-n4cc(S(=O)(=O)N5C6CCC5COC6)c5ccccc54)nc23)c1F)c1cccc(Cl)c1Cl [Example 67]
IC50 [1]: > 0.05 µM
IC50 [2]: 0.001 to 0.01 µM
IC50 [3]: < 0.5 µM
HCT116 pERK (Ymin %) [3]: 0%

CN1CC2CCC(C1)N2S(=O)(=O)c1cn(-c2nc3c(Nc4c(F)ccc(NS(=O)(=O)c5cccc(Cl)c5Cl)c4F)ncnc3s2)c2ccccc12 [Example 68]
IC50 [1]: 0.01 to 0.05 µM
IC50 [2]: 0.001 to 0.01 µM
IC50 [3]: < 0.5 µM
HCT116 pERK (Ymin %) [3]: −6%

CC1COCCN1S(=O)(=O)c1cn(-c2nc3c(Nc4c(F)ccc(NS(=O)(=O)c5cccc(Cl)c5Cl)c4F)ncnc3s2)c2ccccc12 (stereo not drawn) [Example 69]
IC50 [1]: 0.01 to 0.05 µM
IC50 [2]: > 0.01 µM
IC50 [3]: 0.5 to 1 µM
HCT116 pERK (Ymin %) [3]: −7%

CCN(CCOC)S(=O)(=O)c1cn(-c2nc3c(Nc4c(F)ccc(NS(=O)(=O)c5cccc(Cl)c5Cl)c4F)ncnc3s2)c2ccccc12 [Example 70]
IC50 [1]: 0.01 to 0.05 µM
IC50 [2]: > 0.01 µM
IC50 ([3]; Homo sapiens, HCT-116): 0.5 to 1 µM

O=S(=O)(Nc1ccc(F)c(Nc2ncnc3sc(-n4cnc5c(F)cc(F)cc54)nc23)c1F)c1cccc(Cl)c1Cl [Example 71]
IC50 [1]: < 0.01 µM
IC50 [2]: 0.001 to 0.01 µM
IC50 ([3]; Homo sapiens, HCT-116): < 0.5 µM

CS(=O)(=O)c1cn(-c2nc3c(Nc4c(F)ccc(NS(=O)(=O)c5cccc(Cl)c5Cl)c4F)ncnc3s2)c2ccccc12 [Example 72]
IC50 [1]: < 0.01 µM
IC50 [2]: 0.001 to 0.01 µM
IC50 ([3]; Homo sapiens, HCT-116): 0.5 to 1 µM

CC(C)S(=O)(=O)c1cn(-c2nc3c(Nc4c(F)ccc(NS(=O)(=O)c5cccc(Cl)c5Cl)c4F)ncnc3s2)c2ccccc12 [Example 73]
IC50 [1]: > 0.05 µM
IC50 [2]: 0.001 to 0.01 µM
IC50 [3]: < 0.5 µM
HCT116 pERK (Ymin %) [3]: −12%

O=S(=O)(Nc1ccc(F)c(Nc2ncnc3sc(-n4cc(S(=O)(=O)N5CC(CO)C5)c5ccccc54)nc23)c1F)c1cccc(Cl)c1Cl [Example 74]
IC50 [1]: < 0.01 µM
IC50 [2]: 0.001 to 0.01 µM
IC50 [3]: 1 to 10 µM
HCT116 pERK (Ymin %) [3]: −9%

CN(CC(F)F)S(=O)(=O)c1cn(-c2nc3c(Nc4c(F)ccc(NS(=O)(=O)c5cccc(Cl)c5Cl)c4F)ncnc3s2)c2ccccc12 [Example 75]
IC50 [1]: 0.01 to 0.05 µM
IC50 [2]: > 0.01 µM
IC50 [3]: 1 to 10 µM
HCT116 pERK (Ymin %) [3]: −5%

O=S(=O)(Nc1ccc(F)c(Nc2ncnc3sc(-n4cc(S(=O)(=O)N5CC(C(F)F)C5)c5ccccc54)nc23)c1F)c1cccc(Cl)c1Cl [Example 76]
IC50 [1]: 0.01 to 0.05 µM
IC50 [2]: > 0.01 µM
IC50 [3]: 1 to 10 µM
HCT116 pERK (Ymin %) [3]: −10%

CC(C)(O)[C@@H]1CCCN1C(=O)c1cn(-c2nc3c(Nc4c(F)ccc(NS(=O)(=O)c5cccc(Cl)c5Cl)c4F)ncnc3s2)c2ccccc12 [Example 77]
IC50 [1]: 0.01 to 0.05 µM
IC50 [2]: 0.001 to 0.01 µM
IC50 [3]: 0.5 to 1 µM
HCT116 pERK (Ymin %) [3]: −5%

C[C@]1(CO)CCCN1C(=O)c1cn(-c2nc3c(Nc4c(F)ccc(NS(=O)(=O)c5cccc(Cl)c5Cl)c4F)ncnc3s2)c2ccccc12 [Example 78]
IC50 [1]: 0.01 to 0.05 µM
IC50 [2]: 0.001 to 0.01 µM
IC50 [3]: 0.5 to 1 µM
HCT116 pERK (Ymin %) [3]: −14%

COCCOc1ccc2c(ncn2-c2nc3c(Nc4c(F)ccc(NS(=O)(=O)c5cccc(Cl)c5Cl)c4F)ncnc3s2)c1F [Example 79]
IC50 [1]: < 0.01 µM
IC50 [2]: 0.001 to 0.01 µM
IC50 ([3]; Homo sapiens, HCT-116): 0.5 to 1 µM

O=S(=O)(Nc1ccc(F)c(Nc2ncnc3sc(-n4cnc5c(F)c(OCCO)ccc54)nc23)c1F)c1cccc(Cl)c1Cl [Example 80]
IC50 [1]: < 0.01 µM
IC50 [2]: 0.001 to 0.01 µM
IC50 ([3]; Homo sapiens, HCT-116): 1 to 10 µM

O=C(c1cn(-c2nc3c(Nc4c(F)ccc(NS(=O)(=O)c5cccc(Cl)c5Cl)c4F)ncnc3s2)c2ccc(Cl)cc12)N1C2CCC1COC2 [Example 81]
IC50 [1]: 0.01 to 0.05 µM
IC50 [2]: 0.001 to 0.01 µM
IC50 [3]: 0.5 to 1 µM
HCT116 pERK (Ymin %) [3]: −8%

C[C@@H]1CN(S(=O)(=O)c2cn(-c3nc4c(Nc5c(F)ccc(NS(=O)(=O)c6cccc(Cl)c6Cl)c5F)ncnc4s3)c3ccccc23)C[C@H](C)N1 [Example 82]
IC50 [1]: 0.01 to 0.05 µM
IC50 [2]: 0.001 to 0.01 µM
IC50 [3]: 0.5 to 1 µM
HCT116 pERK (Ymin %) [3]: −13%

CN(CCN1CCOCC1)S(=O)(=O)c1cn(-c2nc3c(Nc4c(F)ccc(NS(=O)(=O)c5cccc(Cl)c5Cl)c4F)ncnc3s2)c2ccccc12 [Example 83]
IC50 [1]: 0.01 to 0.05 µM
IC50 [2]: 0.001 to 0.01 µM
IC50 [3]: 0.5 to 1 µM
HCT116 pERK (Ymin %) [3]: −10%

O=C(c1cn(-c2nc3c(Nc4c(F)ccc(NS(=O)(=O)c5cccc(Cl)c5Cl)c4F)ncnc3s2)c2ccccc12)N1CC2CC1CO2 (stereo not drawn) [Example 84]
IC50 [1]: < 0.01 µM
IC50 [2]: 0.001 to 0.01 µM
IC50 [3]: < 0.5 µM
HCT116 pERK (Ymin %) [3]: 18%

CC1(O)CCN(C(=O)c2cn(-c3nc4c(Nc5c(F)ccc(NS(=O)(=O)c6cccc(Cl)c6Cl)c5F)ncnc4s3)c3ccccc23)CC1 [Example 85]
IC50 [1]: < 0.01 µM
IC50 [2]: 0.001 to 0.01 µM
IC50 [3]: < 0.5 µM
HCT116 pERK (Ymin %) [3]: 8%

O=C(c1cn(-c2nc3c(Nc4c(F)ccc(NS(=O)(=O)c5cccc(Cl)c5Cl)c4F)ncnc3s2)c2ccccc12)N1C2CCC1CC(O)C2 (stereo not drawn) [Example 86]
IC50 [1]: < 0.01 µM
IC50 [2]: 0.001 to 0.01 µM
IC50 [3]: < 0.5 µM
HCT116 pERK (Ymin %) [3]: 4%

CC(C)(O)C1CN(C(=O)c2cn(-c3nc4c(Nc5c(F)ccc(NS(=O)(=O)c6cccc(Cl)c6Cl)c5F)ncnc4s3)c3ccccc23)C1 [Example 87]
IC50 [1]: < 0.01 µM
IC50 [2]: 0.001 to 0.01 µM
IC50 [3]: 0.5 to 1 µM
HCT116 pERK (Ymin %) [3]: −8%

CC(=O)c1cn(-c2nc3c(Nc4c(F)ccc(NS(=O)(=O)c5cccc(Cl)c5Cl)c4F)ncnc3s2)c2ccccc12 [Example 88]
IC50 [1]: > 0.05 µM
IC50 [2]: 0.001 to 0.01 µM
IC50 [3]: 1 to 10 µM
HCT116 pERK (Ymin %) [3]: −8%

O=C(c1cn(-c2nc3c(Nc4c(F)ccc(NS(=O)(=O)c5cccc(Cl)c5Cl)c4F)ncnc3s2)c2ccccc12)N1CCC2CCCCC2(O)C1 (stereo not drawn) [Example 89]
IC50 [1]: > 0.05 µM
IC50 [2]: 0.001 to 0.01 µM
IC50 [3]: < 0.5 µM
HCT116 pERK (Ymin %) [3]: −16%

CC(C)(O)[C@@H]1CCN(C(=O)c2cn(-c3nc4c(Nc5c(F)ccc(NS(=O)(=O)c6cccc(Cl)c6Cl)c5F)ncnc4s3)c3ccccc23)C1 [Example 90]
IC50 [1]: < 0.01 µM
IC50 [2]: 0.001 to 0.01 µM
IC50 [3]: < 0.5 µM
HCT116 pERK (Ymin %) [3]: −6%

CCC(=O)c1cn(-c2nc3c(Nc4c(F)ccc(NS(=O)(=O)c5cccc(Cl)c5Cl)c4F)ncnc3s2)c2ccccc12 [Example 91]
IC50 [1]: > 0.05 µM
IC50 [2]: > 0.01 µM
IC50 ([3]; Homo sapiens, HCT-116): 1 to 10 µM

CC(C)C(=O)c1cn(-c2nc3c(Nc4c(F)ccc(NS(=O)(=O)c5cccc(Cl)c5Cl)c4F)ncnc3s2)c2ccccc12 [Example 92]
IC50 [1]: > 0.05 µM
IC50 [2]: > 0.01 µM
IC50 ([3]; Homo sapiens, HCT-116): 1 to 10 µM

O=C(c1cn(-c2nc3c(Nc4c(F)ccc(NS(=O)(=O)c5cccc(Cl)c5Cl)c4F)ncnc3s2)c2cccc(F)c12)N1C2CCC1COC2 [Example 93]
IC50 [1]: < 0.01 µM
IC50 [2]: < 0.001 µM
IC50 [3]: 0.5 to 1 µM
HCT116 pERK (Ymin %) [3]: 3%

CC1(O)CN(C(=O)c2cn(-c3nc4c(Nc5c(F)ccc(NS(=O)(=O)c6cccc(Cl)c6Cl)c5F)ncnc4s3)c3ccccc23)C1 [Example 94]
IC50 [1]: < 0.01 µM
IC50 [2]: 0.001 to 0.01 µM
IC50 [3]: < 0.5 µM
HCT116 pERK (Ymin %) [3]: −10%
